Experimental data taken from patent US20210330611A1, “THERAPY FOR NEUROLOGICAL DISEASES/DISORDERS” (priority 2020, published 2021).
“And” between values parts separate entries of the source, which are not always exact repeats. Equal entries are not always repeated. Structures can show the parent of a compound that is named as a salt. Where two headings read alike, the source gives them in different places.

Legend:
primary rat microglia [1] = assay: Cell toxicity (dead cells, size <150 μm2) in coated fibrin (cFib) assay; conditions: primary microglia HTS;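 note: share of dead cells sized under 150 µm2 at 10 µM in fibrin-stimulated microglia HTS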
[2] = tested on: LPS-induced microglia activation; assay: Image-based assay of LPS-induced microglia activation (HTS and dose response); type: cell-based, rat; conditions: for inhibition at 10 µM: Rattus norvegicus, Microglia, read-out: LPS % inhibition
[3] = tested on: fibrin-induced microglia activation; assay: Image-based assay of fibrin-induced microglia activation (HTS and dose response); type: cell-based, rat; conditions: primary microglia HTS, fibrin stimulation; for inhibition at 10 µM: Rattus norvegicus, Microglia, read-out: Fibrin % inhibition
primary rat microglia [4] = tested on: primary rat microglia
[5] = tested on: fibrin- and LPS-induced microglia activation; assay: cells; type: cell-based, rat
[6] = fibrin stimulation, cell size <150 μm2 as marker of toxicity
[7] = cell size >800 μm2 as marker of activation
[8] = classification by fibrin and LPS inhibition in HTS
[9] = fibrin assay, dead cells (size <150 μm2)
[10] = primary microglia HTS, LPS stimulation, compounds at 10 μM
[11] = quadrant by fibrin and LPS inhibition, HTS at 10 μM
[12] = fibrin assay, dead cells (size <150 μm2), compounds at 10 μM
[13] = classification by fibrin and LPS inhibition, HTS at 10 μM
[14] = primary microglia HTS, LPS stimulation, compounds at 10 μM, 10 µM

Row | Compound | Fibrin % cell toxicity (primary rat microglia [1]; [6]) | inhibition at 10 µM ([2]; 48 h) [%] | inhibition at 10 µM [3, 7] [%] | LPS % cell toxicity (primary rat microglia [4]; rat) [%] | Quadrant (FIG. 5b) [5, 8] | Fibrin % cell toxicity (primary rat microglia [1]; [9]) | inhibition at 10 µM [2, 10] [%] | inhibition at 10 µM ([3]; compounds at 10 μM) [%] | Quadrant (FIG. 5b) [5, 11] | further results
1 | CN[C@@H]1[C@@H](O)[C@@H](O[C@@H]2[C@@H](O)[C@H](O[C@H]3OC(CN)=CC[C@H]3N)[C@@H](N)C[C@H]2N)OC[C@]1(C)O [Sisomicin Sulfate] | 0% | 10 | -41 | 0 | Q4 |  |  |  |  | 
2 | COCCCOc1cc(C[C@@H](C[C@H](N)[C@@H](O)C[C@H](C(=O)NCC(C)(C)C(N)=O)C(C)C)C(C)C)ccc1OC [Aliskiren] |  |  |  | 0 |  | 1% | 21 | 2 | Q4 | 
3 | CC1CC(OC(=O)C(O)c2ccccc2)CC(C)(C)N1C (stereo not drawn) [Eucatropine Hydrochloride] |  |  |  | 0 |  |  | 24 | 1 |  | Fibrin % cell toxicity (primary rat microglia [1]; [12]): 1%; Quadrant (FIG. 5b) [5, 13]: Q4
4 | CCC1(CC)C(=O)NC(=O)NC1=O [Barbital] |  |  |  | 0 |  | 0% | 11 | -5 | Q4 | 
5 | CC1(C)C(C=C(Cl)Cl)C1C(=O)OC(C#N)c1cccc(Oc2ccccc2)c1 (stereo not drawn) [Alpha-cypermethrin] |  |  |  | 0 |  | 1% | 11 | -15 | Q4 | 
6 | CS(=O)(=O)c1ccc(C2=C(c3ccccc3)C(=O)OC2)cc1 [Rofecoxib] | 0% | 14 | 15 | 0 | Q4 |  |  |  |  | 
7 | O=C(Nc1ccccc1)OCC(CN1CCCCC1)OC(=O)Nc1ccccc1 (stereo not drawn) [Diperodon Hydrochloride] |  |  |  | 1 |  |  | 26 | 42 |  | Fibrin % cell toxicity (primary rat microglia [1]; [12]): 1%; Quadrant (FIG. 5b) [5, 13]: Q4
8 | Nc1ncnc2c1ncn2[C@@H]1O[C@H](CO)[C@@H](O)[C@H]1O [Adenosine] |  |  |  | 1 |  | 1% | 3 | -6 | Q4 | 
9 | CC[C@@H]1C(=O)OC[C@@H]1Cc1cncn1C [Pilocarpine] | 1% | 14 | -2 | 0 | Q4 |  |  |  |  | 
10 | CC(=O)SCC(Cc1ccccc1)C(=O)NCC(=O)OCc1ccccc1 (stereo not drawn) [Racecadotril] | 1% | 18 | -51 | 0 | Q4 |  |  |  |  | 
11 | CC(=O)Oc1cccc(C(=O)O)c1OC(C)=O [Dipyrocetyl] |  |  |  | 0 |  |  | 7 | -1 |  | Fibrin % cell toxicity (primary rat microglia [1]; [12]): 1%; Quadrant (FIG. 5b) [5, 13]: Q4
12 | O=S(=O)(c1cccc2cnccc12)N1CCCNCC1 [Fasudil Hydrochloride] |  |  |  | 0 |  |  | -21 | -72 |  | Fibrin % cell toxicity (primary rat microglia [1]; [12]): 1%; Quadrant (FIG. 5b) [5, 13]: Q4
13 | CCC(=O)NCC[C@@H]1CCc2ccc3c(c21)CCO3 [Ramelteon] | 0% | 20 | 25 | 0 | Q4 |  |  |  |  | 
14 | O=C(O)c1cn(-c2ccc(F)cc2)c2cc(N3CCNCC3)c(F)cc2c1=O [Sarafloxacin] | 0% | 4 | 2 | 0 | Q4 |  |  |  |  | 
15 | CCOc1nc2cccc(C(=O)OCc3oc(=O)oc3C)c2n1Cc1ccc(-c2ccccc2-c2noc(=O)[nH]2)cc1 [Azilsartan medoxomil] |  |  |  | 1 |  | 0% | 31 | 5 | Q4 | 
16 | CCC1(c2ccccc2)C(=O)NC(=O)NC1=O [Phenobarbital] | 0% | -7 | -22 | 0 | Q4 |  |  |  |  | 
17 | NC(=O)NC1NC(=O)NC1=O (stereo not drawn) [Allantoin] |  |  |  | 0 |  | 1% | 6 | -21 | Q4 | 
18 | O=C1OC2(c3ccccc31)c1cc(I)c(O)c(I)c1Oc1c2cc(I)c(O)c1I [Erythrosine Sodium] |  |  |  | 0 |  |  | 0 | 1 |  | Fibrin % cell toxicity (primary rat microglia [1]; [12]): 1%; Quadrant (FIG. 5b) [5, 13]: Q4
19 | CC(=O)NCCCS(=O)(=O)[O-].CC(=O)NCCCS(=O)(=O)[O-].[Ca+2] [Acamprosate Calcium] |  |  |  |  |  | 1% |  |  | Q4 | LPS % inhibition [2, 10]: 22%; Fibrin % inhibition ([3]; compounds at 10 μM): 12%; LPS % cell toxicity (primary rat microglia [4]): 0%
20 | OCc1ccccc1O [Salicyl Alcohol] | 1% | 19 | -5 | 0 | Q4 |  |  |  |  | 
21 | O=C(O)CSCC(=O)NC1CCSC1=O (stereo not drawn) [Erdosteine] |  |  |  | 0 |  |  | 13 | 2 |  | Fibrin % cell toxicity (primary rat microglia [1]; [12]): 1%; Quadrant (FIG. 5b) [5, 13]: Q4
22 | CCCCCCCCCCCCCCOS(=O)(=O)[O-].[Na+] [Sodium Tetradecyl Sulfate] | 1% | 13 | -5 | 0 | Q4 |  |  |  |  | 
23 | CC[C@H](C)C(=O)O[C@H]1C[C@H](O)C=C2C=C[C@H](C)[C@H](CC[C@@H](O)C[C@@H](O)CC(=O)O)[C@H]21 [Pravastatin] | 1% | 10 |  | 0 | Q4 |  |  |  |  | Fibrin % inhibition [3, 7]: 10%
24 | CO[C@H]1O[C@@H]2O[C@@]3(C)CC[C@H]4[C@H](C)CC[C@@H]([C@H]1C)[C@@]24OO3 [Artemether] |  |  |  | 0 |  | 1% and 0% |  |  | Q4 | LPS % inhibition [2, 14]: 0% and 4%
25 | COc1ccccc1OCC(O)CN1CCN(CC(=O)Nc2c(C)cccc2C)CC1 (stereo not drawn) [Ranolazine, Ranolazine Dihydrochloride] | 0% and 1% |  |  |  | Q4 |  |  |  |  | LPS % inhibition [2]: 12% and 2%; LPS % cell toxicity (primary rat microglia [4]): 0%
26 | COc1ccc(C[C@H](N)C(=O)N[C@H]2[C@@H](O)[C@H](n3cnc4c(N(C)C)ncnc43)O[C@@H]2CO)cc1.Cl.Cl |  |  |  |  |  | 66% |  |  | Q2 | LPS % inhibition [2, 10]: 124%; LPS % cell toxicity (primary rat microglia [4]): 52%
27 | CCN(C)C(=O)Oc1cccc([C@H](C)N(C)C)c1 [Rivastigmine] | 1% | 5 |  | 0 | Q4 |  |  |  |  | 
28 | CCCCOc1ccc(C(=O)CCN2CCCCC2)cc1 [Dyclonine] |  |  |  | 0 |  |  |  |  |  | Fibrin % cell toxicity (primary rat microglia [1]; [12]): 1%; LPS % inhibition [2, 14]: 12% and 5%; Quadrant (FIG. 5b) [5, 13]: Q4
